Experimental data as given in PubChem BioAssay AID1919010 (Molecular Pharmacology Branch, DTP, NCI, 2023).
Where “and” joins values, the source holds several entries; their conditions need not be identical. Identical values can stand only once.

Test system: Hs578T complex spheroid growth, percent test/control
Test: Anticancer human tumor Hs578T cell line growth inhibition [AhR];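 also: luminescent viability signal as a proxy for spheroid growth; spheroids exposed to agents for one week after three days of growth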
Conditions: for viability, T/C: stronger effect = lower value
Summary of the method: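 Complex tumor spheroids co-cultured with HUVEC and human MSC stroma; AhR antagonists tested in combination with standard-of-care and investigational agents. Top concentration at or near clinical Cmax (else 10 microM), half-log dilutions; growth expressed as percent test/control.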

Q: How did the IC50 (curve of first compound, second compound 0.1 µM) turn out when `COc1cc(Nc2ncc3c(n2)-c2ccc(Cl)cc2C(c2c(F)cccc2OC)=NC3)ccc1C(=O)O` + Cc1ccccc1N=Nc1ccc(NC(=O)c2ccnn2C)c(C)c1 was run?
A: 6.12 µM

Q: And the IC50 (curve of first compound, second compound 0.316 µM)?
A: 6.76 µM

Q: What about the IC50 (curve of first compound, second compound 1 µM) of the same molecule?
A: 7.91 µM

Q: What about the IC50 (curve of first compound, second compound 3.16 µM) of the same molecule?
A: > 10 µM

Q: What about the IC50 (curve of first compound, second compound 10 µM) of the same molecule?
A: 5.67 µM

Q: What about the viability, T/C (second compound 0.1 µM, first compound 0.0316 µM) of the same molecule?
A: 88.2%

Q: What about the viability, T/C (second compound 0.1 µM, first compound 0.1 µM) of the same molecule?
A: 91.4%

Q: And the viability, T/C (second compound 0.1 µM, first compound 0.316 µM)?
A: 78%

Q: And the viability, T/C (second compound 0.1 µM, first compound 1 µM)?
A: 77.5%

Q: And the viability, T/C (second compound 0.1 µM, first compound 3.16 µM)?
A: 71.9%

Q: And the viability, T/C (second compound 0.1 µM, first compound 10 µM)?
A: 35.4%

Q: What about the viability, T/C (second compound 0.316 µM, first compound 0.0316 µM) of the same molecule?
A: 85%

Q: And the viability, T/C (second compound 0.316 µM, first compound 0.1 µM)?
A: 81.7%

Q: And the viability, T/C (second compound 0.316 µM, first compound 0.316 µM)?
A: 91.8%

Q: What about the viability, T/C (second compound 0.316 µM, first compound 1 µM) of the same molecule?
A: 79.4%

Q: And the viability, T/C (second compound 0.316 µM, first compound 3.16 µM)?
A: 67.9%

Q: What about the viability, T/C (second compound 0.316 µM, first compound 10 µM) of the same molecule?
A: 40.9%

Q: And the viability, T/C (second compound 1 µM, first compound 0.0316 µM)?
A: 86%

Q: What about the viability, T/C (second compound 1 µM, first compound 0.1 µM) of the same molecule?
A: 75%

Q: What about the viability, T/C (second compound 1 µM, first compound 0.316 µM) of the same molecule?
A: 92.9%

Q: And the viability, T/C (second compound 1 µM, first compound 1 µM)?
A: 82.3%

Q: And the viability, T/C (second compound 1 µM, first compound 3.16 µM)?
A: 73.2%

Q: What about the viability, T/C (second compound 1 µM, first compound 10 µM) of the same molecule?
A: 44%

Q: And the viability, T/C (second compound 3.16 µM, first compound 0.0316 µM)?
A: 71.5%

Q: What about the viability, T/C (second compound 3.16 µM, first compound 0.1 µM) of the same molecule?
A: 83.1%

Q: What about the viability, T/C (second compound 3.16 µM, first compound 0.316 µM) of the same molecule?
A: 85.1%

Q: And the viability, T/C (second compound 3.16 µM, first compound 1 µM)?
A: 73.8%

Q: And the viability, T/C (second compound 3.16 µM, first compound 3.16 µM)?
A: 66.7%

Q: And the viability, T/C (second compound 3.16 µM, first compound 10 µM)?
A: 50.1%

Q: And the viability, T/C (second compound 10 µM, first compound 0.0316 µM)?
A: 68.4%

Q: And the viability, T/C (second compound 10 µM, first compound 0.1 µM)?
A: 64.2%

Q: What about the viability, T/C (second compound 10 µM, first compound 0.316 µM) of the same molecule?
A: 68.3%

Q: And the viability, T/C (second compound 10 µM, first compound 1 µM)?
A: 63.9%

Q: What about the viability, T/C (second compound 10 µM, first compound 3.16 µM) of the same molecule?
A: 62.5%

Q: What about the viability, T/C (second compound 10 µM, first compound 10 µM) of the same molecule?
A: 38.2%

Q: How did the viability, T/C (compound 0.0316 µM) turn out when `COc1cc(C2c3cc4c(cc3C(OC3OC5COC(C)OC5C(O)C3O)C3COC(=O)C23)OCO4)cc(OC)c1O` (configuration not stated) was run?
A: 85.4% and 94.6% and 92.8%

Q: And the viability, T/C (compound 0.1 µM)?
A: 99.7% and 91.7% and 91.5%

Q: And the viability, T/C (compound 0.316 µM)?
A: 84.1% and 88.8% and 79.9%

Q: What about the viability, T/C (compound 1 µM) of the same molecule?
A: 66.8% and 82.6% and 69.9%

Q: And the viability, T/C (compound 3.16 µM)?
A: 69.5% and 79.7% and 71.9%

Q: What about the viability, T/C (compound 10 µM) of the same molecule?
A: 58.1% and 56.4% and 57.1%

Q: What about the IC50 (curve of compound) of the same molecule?
A: > 10 µM
